Measured values: US9908884B2, “EGFR inhibitors and methods of treating disorders” (priority 2009, dated 2018)

Experiments:
[1] = system: lung cancer patients; conditions: all lung cancer patients, not selected for EGFR mutation; cited from earlier work
[2] = molecular target: T790M EGFR (Homo sapiens, UniProt P00533, T790M); assay: Mass spectrometric analysis of T790M EGFR modification; conditions: MS/MS of peptic peptide 791-798
Source text: (A) Intact ESI mass spectra of the free and inhibitor bound. The raw m/z data are shown on the left and the transformed, mass only spectra shown on the right. The measured and theoretical molecular weights of the unmodified as well as modified version of each protein are indicated. In the transformed mass spectra, peaks corresponding to a phosphorylation are indicated. […] All the ions in these mass spectra have been converted to a single charge state.
For intact protein mass spectral analysis, the proteins T790M alone and with small molecules bound were injected onto a POROS 20 R2 protein trap and desalted with 0.05% trifluoroacetic acid (TFA) at a flow rate of 100 μL/min. The proteins were eluted into the mass spectrometer using a linear 15%-75% (v/v) acetonitrile gradient over 4 min at 50 μL/min using a Shimadzu HPLC system (LC-10ADvp). Intact protein analyses were performed on an LCT-Premier instrument (Waters Corp., Milford, Mass., USA) equipped with a standard electrospray source. The capillary voltage was 3.2 kV and the cone voltage of 35 V. Nitrogen was used as desolvation gas. A source temperature of 175° C. and a desolvation temperature of 80° C. were applied. The instrument was calibrated by infusing a solution of 500 fmol/μL myoglobin and the mass accuracy was less than 10 ppm. […]

[3] = system: H1975 (L858R/T790M) cells; assay: EGFR signaling immunoblot in H1975 cells; type: cell-based; conditions: 16 hours
Method: All cell lines were maintained in RPMI 1640 (Cellgro; Mediatech Inc., Herndon, Calif.) supplemented with 10% FBS 100 units/mL penicillin, 100 […], and 2 mM glutamine.
The supernatant was used for subsequent procedures. […] Antibody binding was detected using an enhanced chemiluminescence system (New England Nuclear Life Science Products Inc.).

[4] = Phase I trial; cited from earlier work

COc1cc2ncnc(Nc3ccc(F)c(Cl)c3)c2cc1OCCCN1CCOCC1 [gefitinib]
median time to tumor progression [1]: approximately 2 months

C=CC(=O)Nc1cccc(Oc2nc(Nc3ccc(N4CCN(C)CC4)cc3)ncc2Cl)c1 [WZ3146, N-(3-(5-chloro-2-(4-(4-methylpiperazin-1-yl)phenylamino)pyrimidin-4-yloxy)phenyl)acrylamide]
site of covalent attachment [2]: Cys797 was the site of covalent attachment | inhibition of EGFR, Akt and ERK 1/2 phosphorylation [3]: significantly lower concentrations compared with CL-387,785

CCOc1cc2ncc(C#N)c(Nc3ccc(OCc4ccccn4)c(Cl)c3)c2cc1NC(=O)/C=C/CN(C)C [HKI-272]
Cmax [4]: ~200 nM

C#Cc1cccc(Nc2ncnc3cc(OCCOC)c(OCCOC)cc23)c1 [erlotinib]
median time to tumor progression [1]: approximately 2 months
